RP-LC retention time data for 79 compounds are collected here from the METLIN SMRT retention time set (Domingo-Almenara et al. 2019).

A short description of this data set: gradient 5% acetonitrile 3 min, to 50% in 2 min, to 85% in 15 min, held 3 min, 100 µL/min. The settings on record: column: Zorbax Extend-C18 2.1 x 50 mm; eluents: water / acetonitrile, 0.1% formic acid. In a few lines:
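Using water and acetonitrile that each contained 0.1% formic acid, mixtures of ~100 pure standards were separated at 100 μL/min on a Zorbax Extend-C18 column (2.1 × 50 mm, 1.8 μm). The HPLC fed a quadrupole time-of-flight mass spectrometer working in positive and negative ionization mode, with dead and dwell volumes of 40 μL and 900 μL. Data were acquired over 3 months. Retention time was read from computationally picked adduct peaks after manual inspection of each.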
As for `CCOC(=O)c1sc(NC(=O)c2cccc([N+](=O)[O-])c2)nc1-c1ccccc1`, the RP-LC retention time was 1100 s.
For `CN(C1CCc2nn(CC3CC3)c(=O)n2CC1)S(=O)(=O)c1ccc(C#N)cc1` (centres undefined), the RP-LC retention time turned out to be 743 s.
For `CCN(CC)S(=O)(=O)c1ccc2c(c1)N(CC(=O)N1CCCC1)C(=O)C1CCCCN21` (centres undefined) the value was 835 s.
For `COc1ccc(OC)c(CNC(=O)c2nc(N3CCCC3)c3ccccc3n2)c1` the value was 707 s.
As for `CCn1ccc2cc(S(=O)(=O)N3CCCC(C(=O)NCc4cc(OC)ccc4OC)C3)ccc21` (centres undefined), the RP-LC retention time is 988 s.
For `CC(=O)N1CCc2cc(-c3ccc(C(=O)NCCCN4CCCCC4C)cc3)ccc21` (centres undefined), the RP-LC retention time is 616 s.
Consider `CCN1CCN(CCCNC(=O)C2CCCN(C(=O)c3cc4sccc4n3CC)C2)CC1` (centres undefined), for which the RP-LC retention time was 566 s.
`COc1ccc(N2CC(C(=O)NCc3ccccc3OC)CC2=O)cc1` (centres undefined) came in with an RP-LC retention time of 724 s.
In the case of `COc1cc(C(=O)NC2CCN(c3cc(-c4ccc(Cl)cc4)[nH]n3)C2)cc(OC)c1OC` (centres undefined), the RP-LC retention time is 767 s.
For the compound `COc1cccc(C2CC(c3ccc(Br)cc3)=NC3(CCN(C)CC3)N2)c1O` (centres undefined), the RP-LC retention time came to 620 s.
For the compound `Cc1noc(CN2N=C(C(=O)N3CCC(C)CC3)S(=O)(=O)c3ccccc32)n1`, the RP-LC retention time worked out at 826 s.
Turning to `O=C(NC1CCCCC1)c1ccc2c(c1)N(C(=O)c1ccc(F)cc1)CC2`, the RP-LC retention time came to 944 s.
The value for `Cc1ccc(S(=O)(=O)N2CCSCCSCCSCCSCC2)cc1` was 1160 s; that for `CCN1CCCn2cc(S(=O)(=O)N3CCN(c4ccccc4OC)CC3)cc2C1=O` was 784 s; that for `CCCSCCCNC(=O)C1CCCN(c2nc3ccccc3n(CC)c2=O)C1` (centres undefined) was 1040 s.
Compound `CCn1cnnc1C1CCCCN1S(=O)(=O)c1cccs1` (centres undefined) came in with an RP-LC retention time of 694 s.
`CC1(C(=O)NCc2ccccc2)Cn2cnc(C(=O)NCc3ccccc3Cl)c2C(=O)N1C1CC1` (centres undefined) yielded an RP-LC retention time of 816 s.
The compound `COc1ccccc1-c1cnn2c(C)cc(C)nc12` had an RP-LC retention time of 862 s.
Compound `CN(C)CCNC(=O)C(C)(C)Oc1ccc(Cl)cc1` showed an RP-LC retention time of 629 s.
`COc1ccc(-c2nc3cc(F)ccc3s2)cc1OC`: the RP-LC retention time was 1030 s.
In turn, `CC1=C(c2ccccc2)S(=O)(=O)N=C1N1CCCN(C(=O)c2cccc(Cl)c2)CC1` displayed an RP-LC retention time of 862 s.
The value for `CCCN1CCN(CCCNC(=O)C2CCN(Cc3cn(C)c4ccc(Cl)cc34)CC2)CC1` was 541 s.
For `COC(=O)NCc1nnnn1-c1ccc(OC)cc1` the value was 616 s; for `CCOc1ccc(-c2noc(Cn3c(=O)n(C(C)C)c(=O)c4ccccc43)n2)cc1`, 1190 s.
`Cc1ccc(-c2ncc(C(=O)Nc3cc(F)cc(F)c3)c(-c3ccncc3)n2)cc1` showed an RP-LC retention time of 1060 s.
In turn, `Cc1ccc(NS(=O)(=O)c2cc3c(=O)n(C)ncn3c2)cc1` returned an RP-LC retention time of 821 s.
`COC(=O)C1=C(C)NC2=C(C(=O)c3ccccc32)C1c1cccs1` (centres undefined) returned an RP-LC retention time of 918 s.
The compound `COC(=O)c1sc2ccccc2c1NC(=O)c1ccc(S(=O)(=O)N2CCCC2)cc1` had an RP-LC retention time of 946 s.
In turn, `CCC(C)[C@H](NC(=O)N1C[C@H]2C[C@@H](C1)c1cccc(=O)n1C2)C(=O)OC` (some centres undefined) came in with an RP-LC retention time of 624 s.
Take `CC(=O)c1ccn(S(=O)(=O)c2ccc(C)cc2)c1`: the RP-LC retention time is 804 s.
`COCCN1C(=O)C(CC(=O)NCCCn2cccn2)=C2CCCCC21` (centres undefined) showed an RP-LC retention time of 634 s.
In the case of `COc1ccc(-c2cc3n(n2)CCCN(C(=O)c2cnccn2)C3)cc1`, the RP-LC retention time amounted to 695 s.
On to `CC1CCN(S(=O)(=O)c2ccc3c(c2)CCCC(=O)N3CC(=O)N(C)C2CCCCC2)CC1`, for which the RP-LC retention time turned out to be 1040 s.
In the case of `O=C(c1ccc2ccccc2n1)N1CCN(C(=O)N2C[C@H]3C[C@H](C2)[C@H]2CCCC(=O)N2C3)CC1`, the RP-LC retention time worked out at 650 s.
In turn, `Cc1nn(-c2ccccc2)c(C)c1S(=O)(=O)N1CCC(C(=O)N2CCCC2)CC1` yielded an RP-LC retention time of 786 s.
For `COc1ccc2[nH]c(C(=O)N3CC(n4cc(COCC5CC5)nn4)C3)cc2c1` the value was 742 s; for `CCOC(=O)c1c(NCCc2cccs2)c2ccc(Cl)cc2[nH]c1=O`, 821 s.
For `COc1ccc(Nc2c(C(=O)N3CCCC3)cnc3nc(C)ccc23)cc1OC` the value was 906 s.
Turning to `CCNc1cc(N2CCCC(CCC(=O)N3CCC(C(=O)OCC)CC3)C2)ncn1` (centres undefined), the RP-LC retention time was found to be 646 s.
For `Cc1cccc(CN2CC(n3cc(COc4ccc(F)cc4)nn3)C2)c1` the value was 605 s.
Compound `O=C(Cn1ncc2c(c1=O)N(CC1CC1)C(=O)CS2)Nc1cccc(C(F)(F)F)c1` gave an RP-LC retention time of 869 s.
`O=C(NCc1cccc(F)c1)C1CC(=O)N(c2n[nH]c3cccc(F)c23)C1` (centres undefined) showed an RP-LC retention time of 705 s.
For `CN(C)C(=O)c1ccc2c(c1)nc(CN1CCN(C(=O)c3ccc(C#N)cc3)CC1)n2C` the value was 597 s; for `Cc1cc(Br)ccc1NC(=O)Cc1csc(Nc2ccc(Cl)cn2)n1`, 1040 s.
`Cc1cc(N2CCN(C(=O)c3ccc(F)cc3)CC2)nc(N2CCOCC2)n1`: the RP-LC retention time was 608 s.
As to `CC(C)c1noc(-c2cc(=O)n(CC(=O)Nc3ccc(Cl)cc3)c3ccccc23)n1`, the RP-LC retention time was 1060 s.
For `O=C(NCc1cccc(Cl)c1)C1CCc2nc(N3CCOCC3)ncc2C1` (centres undefined) the value was 726 s; for `CN(Cc1ccco1)C(=O)C1CCN(S(=O)(=O)c2ccc3c(c2)sc(=O)n3C)CC1`, 803 s; for `Cc1sc(NC(=O)c2ccccc2F)nc1-c1ccc2c(c1)NC(=O)C(C)O2` (centres undefined), 899 s.
Turning to `c1cc(CSc2cc(N3CCCC3)ncn2)ccn1`, the RP-LC retention time amounted to 536 s.
Compound `Cc1ccc(NC(=O)c2cccc([N+](=O)[O-])c2)c(C)c1` yielded an RP-LC retention time of 830 s.
In the case of `COc1ccc(N2CCN(c3cc(SCC(=O)NC4CCCCC4)ncn3)CC2)cc1`, the RP-LC retention time was found to be 875 s.
As for `CC1CC(C)CN(CCCNC(=O)Cn2ncc3c4ccccc4n(C)c3c2=O)C1` (centres undefined), the RP-LC retention time came to 659 s.
The value for `Cc1noc(-c2ccc(OC3CN(S(=O)(=O)c4c(C)nn(C)c4C)C3)cc2)n1` was 807 s; that for `CN(C)C(=O)c1n[nH]c2c1CN(C(=O)c1cc(F)ccc1F)CC2` was 617 s; that for `CS(=O)(=O)N1CCCN(C(=O)c2ccc(F)cc2)CC1` was 670 s.
In the case of `Cc1nc(SCC(=O)NCc2ccccc2Cl)cc(-c2ccccn2)n1`, the RP-LC retention time was found to be 848 s.
As to `Cc1nnc2ccc(N3CCC(C(=O)N4CCN(c5ncccn5)CC4)CC3)nn12`, the RP-LC retention time was determined as 646 s.
Compound `Cn1nc(C(=O)N2CCCC2)c2c1CCN(C(=O)Nc1ccc(F)cc1F)C2` came in with an RP-LC retention time of 718 s.
`CCn1cc(-c2nc(C(=O)NCc3ccccc3Cl)cs2)c2cccnc21`: the RP-LC retention time came to 1070 s.
`COc1ccc(NC(=O)NCCc2ccsc2)cc1` registered an RP-LC retention time of 729 s.
Compound `CCN1C(=O)C2(C(C#N)=C(N)Oc3n[nH]c(-c4ccccc4)c32)c2ccccc21` (centres undefined) yielded an RP-LC retention time of 733 s.
`COc1cc([C@@H]2c3cc4c(cc3[C@H](O)[C@@H](CO)[C@@H]2C(=O)NCC(C)C)OCO4)cc(OC)c1OC`: the RP-LC retention time stood at 668 s.
For the compound `Cn1cc(-c2cc3n(n2)CCC(=O)N3CC(=O)NCCCN2CCCC2=O)c2ccccc21`, the RP-LC retention time was 657 s.
Compound `Cc1cc(C(=O)N2CCOCC2)n(CC(=O)NCc2ccco2)n1` displayed an RP-LC retention time of 576 s.
Consider `Fc1ccccc1N1CCN(c2ncc3c(n2)CCN(Cc2ccc4c(c2)OCCO4)C3)CC1`, for which the RP-LC retention time is 779 s.
As for `Cc1nn2c(CNC(=O)c3ccc(Br)cc3)c(C)nc2s1`, the RP-LC retention time came to 656 s.
The value for `O=C(NC1CCN(c2cc(-c3ccc(Cl)cc3)[nH]n2)C1)c1ccc2nc[nH]c2c1` (centres undefined) was 626 s; that for `COc1ccc(-c2cc3c(=O)n(Cc4nc(-c5ccc(OC)cc5)oc4C)ccn3n2)cc1` was 1070 s.
For the compound `O=C(CC1CCCCC1)N1CCN(c2cc(-c3ccc(Cl)cc3)[nH]n2)CC1`, the RP-LC retention time is 936 s.
For `Cc1ccc(N2CC(c3noc(-c4ccc(OC(F)(F)F)cc4)n3)CC2=O)cc1` (centres undefined), the RP-LC retention time was found to be 1170 s.
Consider `Cc1cc(N2CCN(C(=O)c3ccc(Br)o3)CC2)nc(N2CCCCC2)n1`, for which the RP-LC retention time is 690 s.
The value for `COc1ccc(NC(=O)N2CC(N(C3CCOCC3)S(C)(=O)=O)C2)cc1OC` was 630 s.
Regarding `Cc1ccc(C)c(CN2C(=O)NC3(CCN(C(=O)c4ccsc4)CC3)C2=O)c1`, the RP-LC retention time came out at 827 s.
As to `Cc1nc2cc(-c3noc(-c4ccc(C)c(F)c4)n3)ccc2o1`, the RP-LC retention time was found to be 1210 s.
In turn, `NS(=O)(=O)c1ccc(NC(=O)Cn2cnc(-c3ccccc3)cc2=O)cc1` returned an RP-LC retention time of 638 s.
For the compound `O=C(NC1CCCCCC1)C1CCCN(C(=O)c2cccc(C(F)(F)F)c2)C1` (centres undefined), the RP-LC retention time came to 948 s.
Compound `COc1cccc(-c2nnc(Cc3nc(-c4cccc(Br)c4)no3)o2)c1` came in with an RP-LC retention time of 1090 s.
`O=C(NCCN1CCCCC1)c1cn2cc(Cl)ccc2n1`: the RP-LC retention time is 579 s.
